Assay results taken from patent US20250122219A1 (priority 2023, published 2025).

Columns and labels:
[1] = system: HIV-1 (IIIB); assay: Antiviral assay in MT-4 cells; format: cell-based; details: Human immunodeficiency virus 1, MT4, 120 h; HIV-1 IIIB in MT-4 cells, 5 days incubation, Cell Titer Glo; read-out: MT4 EC50
Experimental: Compounds were tested in a high-throughput 384-well assay format for their ability to inhibit the replication of HIV-1 (IIIB) in MT-4 cells. Compounds were serially diluted (1.3) in DMSO on 384-well polypropylene plates and further diluted 200-fold into complete RPMI media (10% FBS, 1% P/S) using the Biotek Micro Flow and Labcyte ECHO acoustic dispenser. Each plate contained up to 8 test compounds, with negative (No Drug Control) and 5 μM AZT positive controls. MT-4 cells were pre-infected with 10 μL of either RPMI (mock-infected) or a fresh 1:250 dilution of HIV-1 IIIB concentrated virus stock. Infected and uninfected MT-4 cells were further diluted in complete RPMI media and added to each plate using a Micro Flow dispenser. After 5 days incubation in a humidified and temperature controlled incubator (37° C.), Cell Titer Glo (Promega) was added to the assay plates and chemiluminescence read using an Envision plate-reader.

[2] = Cytotoxicity assay in MT-4 cells; format: cell-based; details: human; uninfected MT-4 cells, 5 days incubation, Cell Titer Glo; read-out: MT4 CC50
Procedure, shortened: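 Uninfected MT-4 cells exposed to serially diluted compounds in RPMI with 10% FBS for 5 days at 37 °C. Viability by Cell Titer Glo chemiluminescence. Puromycin […] as baseline cytotoxicity control.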

Structure (SMILES) | EC50 [1] [µM] | CC50 at 5 days [2] [µM]
CCCCCCCCCC(=O)Oc1c2n(cc(C(=O)NCc3ccc(F)cc3F)c1=O)[C@@H]1CN(C2=O)[C@@H](C)CC[C@]12CC(C)=NO2 [Example 45, (3′S,5S,7′R)-10′-((2,4-difluorobenzyl)carbamoyl)-3,3′-dimethyl-1′,11′-dioxo-1′,4′,5′,11′-tetrahydro-3′H,4H,7′H-spiro[isoxazole-5,6′-[2,7]methanopyrido[1,2-a][1,4]diazonin]-12′-yl decanoate] | 0.000373 | 22.2
CCCCCCCCCCCC(=O)Oc1c2n(cc(C(=O)NCc3ccc(F)cc3F)c1=O)[C@@H]1CN(C2=O)[C@@H](C)CC[C@]12CC(OC)=NO2 [Example 46, (3′S,5S,7′R)-10′-((2,4-difluorobenzyl)carbamoyl)-3-methoxy-3′-methyl-1′,11′-dioxo-1′,4′,5′,11′-tetrahydro-3′H,4H,7′H-spiro[isoxazole-5,6′-[2,7]methanopyrido[1,2-a][1,4]diazonin]-12′-yl dodecanoate] | 0.00206 | 36.2
CCCCCCCCCCCC(=O)Oc1c2n(cc(C(=O)NCc3ccc(F)cc3F)c1=O)[C@@H]1CN(C2=O)[C@@H](C)CC[C@]12CC(C)=NO2 [Example 47, (3′S,5S,7′R)-10′-((2,4-difluorobenzyl)carbamoyl)-3,3′-dimethyl-1′,11′-dioxo-1′,4′,5′,11′-tetrahydro-3′H,4H,7′H-spiro[isoxazole-5,6′-[2,7]methanopyrido[1,2-a][1,4]diazonin]-12′-yl dodecanoate] | 0.00201 | 22.6
COC1=NO[C@@]2(CC[C@H](C)N3C[C@H]2n2cc(C(=O)NCc4ccc(F)cc4F)c(=O)c(OC(=O)C4CCCC4)c2C3=O)C1 [Example 52, (3′S,5S,7′R)-10′-((2,4-difluorobenzyl)carbamoyl)-3-methoxy-3′-methyl-1′,11′-dioxo-1′,4′,5′,11′-tetrahydro-3′H,4H,7′H-spiro[isoxazole-5,6′-[2,7]methanopyrido[1,2-a][1,4]diazonin]-12′-yl cyclopentanecarboxylate] | 0.000604 | 24.7
CC1=NO[C@@]2(CC[C@H](C)N3C[C@H]2n2cc(C(=O)NCc4ccc(F)cc4F)c(=O)c(OC(=O)C4CCCC4)c2C3=O)C1 [Example 53, (3′S,5S,7′R)-10′-((2,4-difluorobenzyl)carbamoyl)-3,3′-dimethyl-1′,11′-dioxo-1′,4′,5′,11′-tetrahydro-3′H,4H,7′H-spiro[isoxazole-5,6′-[2,7]methanopyrido[1,2-a][1,4]diazonin]-12′-yl cyclopentanecarboxylate] | 0.00144 | 24.4
COC1=NO[C@@]2(CC[C@H](C)N3C[C@H]2n2cc(C(=O)NCc4ccc(F)cc4F)c(=O)c(OC(=O)CC(C)C)c2C3=O)C1 [Example 54, (3′S,5S,7′R)-10′-((2,4-difluorobenzyl)carbamoyl)-3-methoxy-3′-methyl-1′,11′-dioxo-1′,4′,5′,11′-tetrahydro-3′H,4H,7′H-spiro[isoxazole-5,6′-[2,7]methanopyrido[1,2-a][1,4]diazonin]-12′-yl 3-methylbutanoate] | 0.000504 | 19.4
CC1=NO[C@@]2(CC[C@H](C)N3C[C@H]2n2cc(C(=O)NCc4ccc(F)cc4F)c(=O)c(OC(=O)CC(C)C)c2C3=O)C1 [Example 55, (3′S,5S,7′R)-10′-((2,4-difluorobenzyl)carbamoyl)-3,3′-dimethyl-1′,11′-dioxo-1′,4′,5′,11′-tetrahydro-3′H,4H,7′H-spiro[isoxazole-5,6′-[2,7]methanopyrido[1,2-a][1,4]diazonin]-12′-yl 3-methylbutanoate] | 0.000313 | 16.4
COC1=NO[C@@]2(CC[C@H](C)N3C[C@H]2n2cc(C(=O)NCc4ccc(F)cc4F)c(=O)c(OC(=O)CCC(C)C)c2C3=O)C1 [Example 56, (3′S,5S,7′R)-10′-((2,4-difluorobenzyl)carbamoyl)-3-methoxy-3′-methyl-1′,11′-dioxo-1′,4′,5′,11′-tetrahydro-3′H,4H,7′H-spiro[isoxazole-5,6′-[2,7]methanopyrido[1,2-a][1,4]diazonin]-12′-yl 4-methylpentanoate] | 0.00124 | 34.7
